Source: ChEMBL document CHEMBL4304769, “Discovery of Potent and Orally Bioavailable Inverse Agonists of the Retinoic Acid Receptor-Related Orphan Receptor C2” (ACS Med Chem Lett, 2019)

Assay: in vivo
Conditions: Wistar Han, rat, iv, 1 mg/kg

Row | SMILES | Vd at 24 h [L/kg]
1 | CCS(=O)(=O)c1ccc(C(NC(C)=O)C(=O)Nc2cc(-c3cc(C#N)cc(F)c3OC)cs2)cc1 (racemic) | 0.34
2 | CCS(=O)(=O)c1ccc(C(NC(=O)Cc2ccccc2)C(=O)Nc2ccc(C(O)(C(F)(F)F)C(F)(F)F)cc2)cc1 (configuration not stated) | 10.2

Assay: physchem
Conditions: 1-octanol/PBS buffer, pH 7.4

Row | SMILES | logD
3 | CCS(=O)(=O)c1ccc(C(N)C(=O)Nc2ccc(C(O)(C(F)(F)F)C(F)(F)F)cc2)cc1 (configuration not stated) | 2.8
4 | CCS(=O)(=O)c1ccc(C(NS(C)(=O)=O)C(=O)Nc2ccc(C(O)(C(F)(F)F)C(F)(F)F)cc2)cc1 (configuration not stated) | 2.7
5 | CCS(=O)(=O)c1ccc(C(NC(=O)c2ccccc2)C(=O)Nc2ccc(C(O)(C(F)(F)F)C(F)(F)F)cc2)cc1 (configuration not stated) | > 4
6 | CCS(=O)(=O)c1ccc(CC(=O)Nc2ccc(C(OC)(C(F)(F)F)C(F)(F)F)cc2)cc1 | 4
7 | CCS(=O)(=O)c1ccc(C(NC(=O)Cc2cccnn2)C(=O)Nc2ccc(C(O)(C(F)(F)F)C(F)(F)F)cc2)cc1 (configuration not stated) | 2.5
8 | CCS(=O)(=O)c1ccc(C(NC(=O)CC(C)C)C(=O)Nc2ccc(C(O)(C(F)(F)F)C(F)(F)F)cc2)cc1 (configuration not stated) | > 4
9 | CCS(=O)(=O)c1ccc(C(NC(=O)CCc2ccccc2)C(=O)Nc2ccc(C(O)(C(F)(F)F)C(F)(F)F)cc2)cc1 (configuration not stated) | > 4
10 | CCS(=O)(=O)c1ccc(CC(=O)Nc2cccc(-c3cccc(Cl)c3)c2)cc1 | > 4
11 | CCS(=O)(=O)c1ccc(CC(=O)Nc2ccc(C(C)C)cc2)cc1 | 3.5
12 | CCS(=O)(=O)c1ccc(C(NC(=O)OC)C(=O)Nc2ccc(C(O)(C(F)(F)F)C(F)(F)F)cc2)cc1 (configuration not stated) | 3.6
13 | CCS(=O)(=O)c1ccc(CC(=O)Nc2ccc(C(O)(C(F)(F)F)C(F)(F)F)cc2)cc1 | 3.6

The next lines start with the values.

Row | logD | SMILES
14 | 3.3 | CCS(=O)(=O)c1ccc(C(NC(=O)CC(C)(C)O)C(=O)Nc2ccc(C(O)(C(F)(F)F)C(F)(F)F)cc2)cc1 (configuration not stated)
15 | 2.9 | CCS(=O)(=O)c1ccc(C(NC(=O)Cc2ccnnc2)C(=O)Nc2ccc(C(O)(C(F)(F)F)C(F)(F)F)cc2)cc1 (configuration not stated)
16 | > 4 | CCS(=O)(=O)c1ccc(CC(=O)Nc2ccc(-c3cccc(Cl)c3)cc2)cc1
17 | 2.5 | CCS(=O)(=O)c1ccc(CC(=O)Nc2ccc(C(C)(C)C#N)cc2)cc1
18 | 2.1 | CCS(=O)(=O)c1ccc(CC(=O)Nc2ccc([C@H](O)C(F)(F)F)cc2)cc1
19 | 3.9 | CCS(=O)(=O)c1ccc(CC(=O)Nc2ccc(C(C(F)(F)F)C(F)(F)F)cc2)cc1
20 | 4 | CCS(=O)(=O)c1ccc(C(NC(=O)Cc2ccccc2)C(=O)Nc2ccc(C(O)(C(F)(F)F)C(F)(F)F)cc2)cc1 (configuration not stated)
21 | 3.2 | CCS(=O)(=O)c1ccc(C(NC(=O)NC)C(=O)Nc2ccc(C(O)(C(F)(F)F)C(F)(F)F)cc2)cc1 (configuration not stated)
22 | 2.8 | CCS(=O)(=O)c1ccc(C(NC(=O)Cc2ccncn2)C(=O)Nc2ccc(C(O)(C(F)(F)F)C(F)(F)F)cc2)cc1 (configuration not stated)
23 | 3.3 | CCS(=O)(=O)c1ccc(C(NC(=O)Cc2ccccn2)C(=O)Nc2ccc(C(O)(C(F)(F)F)C(F)(F)F)cc2)cc1 (configuration not stated)
24 | > 4.1 | CCS(=O)(=O)c1ccc(CC(=O)Nc2cc(-c3cccc(Cl)c3)cs2)cc1

Assay: in vivo
Conditions: Wistar Han, rat, po, 2 mg/kg

Row | SMILES | bioavailability at 24 h [%]
25 | CCS(=O)(=O)c1ccc(C(NC(C)=O)C(=O)Nc2cc(-c3cc(C#N)cc(F)c3OC)cs2)cc1 (racemic) | 19
26 | CCS(=O)(=O)c1ccc(C(NC(=O)Cc2ccccc2)C(=O)Nc2ccc(C(O)(C(F)(F)F)C(F)(F)F)cc2)cc1 (configuration not stated) | 5

Assay: in vitro
Conditions: human, Caco-2

Row | SMILES | Papp [×10⁻⁶ cm/s]
27 | CCS(=O)(=O)c1ccc(C(NC(C)=O)C(=O)Nc2cc(-c3cc(C#N)cc(F)c3OC)cs2)cc1 (racemic) | 0.3
